One data set concerns KB cells. The data set can be described thus: MTT cytotoxicity assay, KB cells. It is filed as cell-based. The conditions noted are these: Homo sapiens, 72 h treatment, KB oral epidermoid carcinoma cells. The method, then: (§1) The cell lines were cultured in DMEM or RPMI 1640 containing 10% fetal bovine serum at 37 °C in the presence of 5% CO2. The cell lines were the oral epidermoid carcinoma cell lines KB and its vincristine-selected ABCB1-overexpressing KBv200 [10]; the breast carcinoma cell lines MCF-7 and its doxorubicin-selected ABCB1-overexpressing MCF-7/adr; the lung carcinoma cell line A549 and normal liver cell line LO2.
(§2) The MTT assay was used to evaluate the cytotoxicity of a number of compounds previously isolated from mangrove-derived fungi as described. Briefly, 3–4 × 10^3 cells were incubated in 96-well plates and allowed to attach overnight before compounds at full range concentrations were added. The concentrations were chosen so that the highest concentration killed most of the cells and the lowest killed none of the cells. After 72 h treatment, 0.5 mg/ml MTT was added to each well for an additional 4 h. Subsequently, the supernatant was removed, and the purple MTT-formazan crystals were dissolved by DMSO. Finally, absorbance was recorded at 540 nm with 655 nm as a reference filter using a Model 550 Microplate Reader (Bio-Rad, USA). Experiments were performed at least three times. The standard chemotherapeutic agent doxorubicin was used as a positive control in MTT assay and normal liver cell line LO2 was used to show whether cytotoxic activity was tumor-specific. The concentrations required to inhibit growth by 50% (IC50) were calculated from survival curves using the Bliss method.
(Tetrazolium dyes change colour on reduction, which living cells bring about.)

Another data set relates to KBv200 cells. The data set can be described thus: MTT cytotoxicity assay, KBv200 cells. It is filed as cell-based. As to conditions: Homo sapiens, 72 h treatment, vincristine-selected ABCB1-overexpressing KBv200 cells. As to the method: as §1, §2
For another data set, the system named is MCF-7 cells. The data set can be described thus: MTT cytotoxicity assay, MCF-7 cells. It is filed as cell-based. The conditions noted are these: Homo sapiens, MCF7, 72 h treatment, MCF-7 breast carcinoma cells. The method, then:
as §1, §2

A further data set has as its system MCF-7/adr cells. The data set can be described thus: MTT cytotoxicity assay, MCF-7/adr cells. It is filed as cell-based. The conditions noted are these: Homo sapiens, NCI/ADR-RES, 72 h treatment, doxorubicin-selected ABCB1-overexpressing MCF-7/adr cells. The method, then:
as §1, §2

Another data set deals with A549 cells. As to the kind of experiment: MTT cytotoxicity assay, A549 cells. It is filed as cell-based. The conditions noted are these: Homo sapiens, 72 h treatment, A549 lung carcinoma cells. The method, then:
as §1, §2

A further data set has as its system normal liver LO2 cells. The data set can be described thus: MTT cytotoxicity assay, normal liver LO2 cells. It is filed as cell-based. As to conditions: for IC50: Homo sapiens, L02, 72 h treatment; for IC50 / growth inhibitory activity in LO2 cells (in words): normal liver LO2 cells; for sensitivity of cancer cells compared with normal liver LO2 cells: cancer cells versus LO2 cells. The method, then:
as §1, §2

Another data set relates to pcDNA3.1(+) DNA. As to the kind of experiment: DNA binding assay (agarose gel electrophoresis). As to conditions: 10, 100 or 200 μmol/L with 1 μg pcDNA3.1(+), 37 °C, 3 h; 1% agarose gel. As to the method:
10, 100 or 200 μmol/L compounds were incubated with 1 μg pcDNA3.1(+) at 37 °C for 3 h. The mixtures were then subjected to electrophoresis on a 1% agarose gel, pre-stained with 0.5 μg/ml ethidium bromide, at 60 V for 40 min. Doxorubicin (DOX) was used as a positive control.

The subject of data set [1] is KB, KBv200, MCF-7, MCF-7/adr, and A549 cells. The data set can be described thus: MTT anticancer screen, cancer cell panel. It is filed as cell-based, human. As to conditions: for IC50: Homo sapiens, MTT, KB, KBv200, MCF-7, MCF-7/adr, and A549 cells, read-out: IC50 values (potent cytotoxic activity); for IC50 values in MDR cells compared with parental sensitive cells: KBv200, MCF-7/adr versus KB, MCF-7. The method, then:
as §1, §2

One may read the IC50 as the concentration at which inhibition is half-maximal.

SMILES strings stand for the structures.

With `Cc1c(CO)cc([N+](=O)[O-])cc1CO` [Compound 1], the IC50 was found to be 1.57 ± 0.08 µM in the data set with KB cells; 2.67 ± 0.17 µM with KBv200 cells; 1.38 ± 0.07 µM in the data set with MCF-7 cells; 2.34 ± 0.11 µM in the data set with MCF-7/adr cells; 2.71 ± 0.15 µM in the data set with A549 cells; 6.59 ± 0.44 µM in the data set with normal liver LO2 cells. Moreover, the IC50 in data set [1] is less than 50 µM. In addition, the “sensitivity of cancer cells compared with normal liver LO2 cells” value in the data set on normal liver LO2 cells is given as “more sensitive”. Also, in the data set with pcDNA3.1(+) DNA, the “DNA intercalation / binding to DNA” value was “none of the compounds investigated here showed binding to DNA”.
Turning to `Cc1c(O)cc(O)c(C(=O)O)c1C` [Compound 4], the IC50 was 1.15 ± 0.06 µM with KB cells; 6.74 ± 0.38 µM in the data set on KBv200 cells; 11.7 ± 0.86 µM with MCF-7 cells; 35.7 ± 2.08 µM in the data set on MCF-7/adr cells; 17.1 ± 1.03 µM in the data set on A549 cells; 16.5 ± 1.22 µM with normal liver LO2 cells. Moreover, the IC50 in data set [1] was less than 50 µM. For the same compound, the “growth inhibitory activity in LO2 cells (in words)” value in the data set with normal liver LO2 cells is reported as “exhibited growth inhibitory activity in LO2 cells”. In addition, the “DNA intercalation / binding to DNA” value in the data set with pcDNA3.1(+) DNA is on record as “none of the compounds investigated here showed binding to DNA”.
Turning to `CCOC(=O)COc1cc(C)cc2c1C(=O)c1c(O)cccc1C2=O` [Compound 11], the IC50 with KB cells was found to be 5.89 ± 0.37 µM; in the data set with KBv200 cells, 18.9 ± 1.2 µM; in the data set on MCF-7 cells it was 13.2 ± 0.84 µM; in the data set on MCF-7/adr cells, 35.3 ± 2.77 µM; in the data set on A549 cells it was 21.3 ± 1.6 µM; in the data set on normal liver LO2 cells, 28.9 ± 1.46 µM. For the same compound, the IC50 in data set [1] was less than 50 µM. The “growth inhibitory activity in LO2 cells (in words)” value with normal liver LO2 cells is reported as “exhibited growth inhibitory activity in LO2 cells”. Moreover, in the data set with pcDNA3.1(+) DNA, the “DNA intercalation / binding to DNA” value is recorded as “none of the compounds investigated here showed binding to DNA”.
As to `C=C/C=C/COc1cccc2c1C(=O)c1c(O)cccc1C2=O` [Compound 13], the IC50 is 21 ± 1.35 µM in the data set with KB cells; greater than 50 µM in the data set on KBv200 cells; 16.3 ± 0.71 µM with MCF-7 cells; greater than 50 µM with MCF-7/adr cells; 31.2 ± 2.02 µM with A549 cells; greater than 50 µM in the data set with normal liver LO2 cells. Also, in data set [1], the IC50 was less than 50 µM. The “DNA intercalation / binding to DNA” value in the data set with pcDNA3.1(+) DNA was “none of the compounds investigated here showed binding to DNA”. Moreover, the “IC50 values in MDR cells compared with parental sensitive cells” value in data set [1] is “much higher IC50 values”.
With `C#CCOc1cc(C)cc2c1C(=O)c1c(O)cccc1C2=O` [Compound 14], the IC50 is 11.9 ± 0.69 µM in the data set on KB cells; greater than 50 µM with KBv200 cells; 35.2 ± 1.87 µM in the data set with MCF-7 cells; greater than 50 µM in the data set with MCF-7/adr cells; 23.5 ± 1.32 µM in the data set with A549 cells; 37.5 ± 1.64 µM in the data set with normal liver LO2 cells. The concentration for half-maximal inhibition (IC50) in data set [1] is less than 50 µM. Besides, the “DNA intercalation / binding to DNA” value in the data set on pcDNA3.1(+) DNA is recorded as “none of the compounds investigated here showed binding to DNA”. Moreover, the “IC50 values in MDR cells compared with parental sensitive cells” value in data set [1] is “much higher IC50 values”.
For the compound `O=C1c2cc(O)cc(O)c2C(=O)c2c1cc1c(c2O)C2CCCC(O1)O2` (stereo not drawn) [Compound 18], the IC50 in the data set on KB cells is 28.2 ± 1.66 µM; in the data set on KBv200 cells, 44.6 ± 2.57 µM; with MCF-7 cells it was 17.2 ± 0.95 µM; in the data set with MCF-7/adr cells it was 25 ± 1.06 µM; in the data set with A549 cells it was 33.9 ± 2.31 µM; in the data set with normal liver LO2 cells, greater than 50 µM. In data set [1], the IC50 was less than 50 µM. Moreover, the “sensitivity of cancer cells compared with normal liver LO2 cells” value in the data set with normal liver LO2 cells was “more sensitive”. Moreover, in the data set with pcDNA3.1(+) DNA, the “DNA intercalation / binding to DNA” value is “none of the compounds investigated here showed binding to DNA”.
In the case of `O=C1c2ccc(O)cc2OCC1c1ccc(O)cc1` (stereo not drawn) [Compound 78], the IC50 in the data set with KB cells amounted to 8.63 ± 0.57 µM; with KBv200 cells, 9.37 ± 0.61 µM; with MCF-7 cells it was 19.8 ± 0.89 µM; in the data set with MCF-7/adr cells it was 24.9 ± 1.15 µM; in the data set on A549 cells, 14.9 ± 0.64 µM; in the data set with normal liver LO2 cells it was 33.6 ± 2.06 µM. For the same compound, the IC50 in data set [1] is less than 50 µM. Besides, in the data set with normal liver LO2 cells, the “sensitivity of cancer cells compared with normal liver LO2 cells” value is reported as “more sensitive”. Moreover, in the data set with pcDNA3.1(+) DNA, the “DNA intercalation / binding to DNA” value was “none of the compounds investigated here showed binding to DNA”. The “cytotoxic / anticancer activity (in words)” value in data set [1] (MTT assay in vitro) is “exhibited a cytotoxicity targeted to cancer cells”.
Consider `COc1cccc2c1C(=O)c1c(O)c3c(c(O)c1C2=O)C[C@@](O)(C(=O)CO)C[C@@H]3O[C@H]1C[C@H](N)[C@H](O)[C@H](C)O1` [Doxorubicin, reference compound], for which the IC50 in the data set with KB cells was 0.05 ± 0.003 µM; in the data set with KBv200 cells, 3.21 ± 0.12 µM; in the data set with MCF-7 cells it was 0.39 ± 0.02 µM; with MCF-7/adr cells, 22.3 ± 1.56 µM; with A549 cells, 1.67 ± 0.09 µM; in the data set with normal liver LO2 cells, 0.11 ± 0.01 µM. The “DNA intercalation / binding to DNA” value with pcDNA3.1(+) DNA is reported as “effectively intercalated into DNA in a concentration-dependent manner”. The “IC50 values in MDR cells compared with parental sensitive cells” value in data set [1] was “much higher IC50 values”.

The record behind these values is publication PMC2866477, “Anticancer Effect and Structure-Activity Analysis of Marine Products Isolated from Metabolites of Mangrove Fungi in the South China Sea” (Marine Drugs, 2010).
